The source of these data is patent publication US20230322761A1, “DEGRADATION OF BRUTON'S TYROSINE KINASE (BTK) BY CONJUGATION OF BTK INHIBITORS WITH E3 LIGASE LIGAND AND METHODS OF USE” (BEIGENE, LTD., priority 2020, published 2023).

Bounds are passed on as bounds.

The DC50 is the midpoint of the concentration-degradation curve. A high value points to a less potent degrader.

The test deals with T1, BTK (Homo sapiens, UniProt Q06187).
T1 construct: endogenous in cells; host or cells: TMD-8 cells
The experiment in a line: BTK degradation in TMD-8 cells, HTRF assay after 6 h treatment. In kind it is cell-based. The following applies: IC50 (DC50) of BTK degradation. A digest of the protocol:
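Remaining BTK was quantified by HTRF in lysates of TMD-8 cells after 6 h exposure to an 8-point, 6-fold compound series (500× stocks in DMSO starting at 1 mM; 0.2% DMSO). Lysis 30 min, antibodies overnight at room temperature, ratio read at 665/620 nm; DC50 fitted with a four-parameter logistic equation.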
For orientation: Time-resolved FRET reads energy transfer from a long-lived donor to a nearby acceptor.

T1 sequence (Q06187 whole entry): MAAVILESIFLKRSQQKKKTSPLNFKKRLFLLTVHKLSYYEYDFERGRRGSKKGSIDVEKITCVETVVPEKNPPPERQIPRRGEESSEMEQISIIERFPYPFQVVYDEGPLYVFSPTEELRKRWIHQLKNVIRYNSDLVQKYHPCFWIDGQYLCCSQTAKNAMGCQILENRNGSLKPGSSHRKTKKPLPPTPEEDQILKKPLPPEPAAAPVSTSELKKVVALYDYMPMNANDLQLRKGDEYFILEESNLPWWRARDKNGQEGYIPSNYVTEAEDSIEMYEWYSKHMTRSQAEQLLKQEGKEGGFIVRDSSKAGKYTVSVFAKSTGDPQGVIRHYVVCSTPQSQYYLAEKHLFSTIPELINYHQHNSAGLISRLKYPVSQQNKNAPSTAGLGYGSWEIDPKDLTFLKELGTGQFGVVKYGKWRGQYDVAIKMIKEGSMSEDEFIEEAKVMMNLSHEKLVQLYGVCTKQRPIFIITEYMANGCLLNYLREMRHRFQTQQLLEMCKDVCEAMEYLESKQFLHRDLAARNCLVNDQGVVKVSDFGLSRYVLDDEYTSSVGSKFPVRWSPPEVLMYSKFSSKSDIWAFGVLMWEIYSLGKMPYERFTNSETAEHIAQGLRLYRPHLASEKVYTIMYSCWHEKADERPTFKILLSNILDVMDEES

As for `Cc1cc(-c2n[nH]c3ncc(-c4ccc(N5CCN(CCc6ccc(C7CCC(=O)NC7=O)c(C)n6)CC5)cc4)cc23)ccc1[C@@H](C)NC(=O)c1noc(C(C)(C)C)n1` (stereo partly drawn) [Example 155, 5-(tert-butyl)-N-((1R)-1-(4-(5-(4-(4-(2-(5-(2,6-dioxopiperidin-3-yl)-6-methylpyridin-2-yl)ethyl)piperazin-1-yl)phenyl)-1H-pyrazolo[3,4-b]pyridin-3-yl)-2-methylphenyl)ethyl)-1,2,4-oxadiazole-3-carboxamide], half-maximal degradation (DC50) was put at 2.92 nM. For `Cc1cc(-c2n[nH]c3ncc(-c4ccc(N5CCN(CCc6ccc(C7CCC(=O)NC7=O)c(C)n6)CC5)cc4)cc23)ccc1[C@@H](C)NC(=O)c1nc(C(C)(C)C)no1` (stereo partly drawn) [Example 156, 3-(tert-butyl)-N-((1R)-1-(4-(5-(4-(4-(2-(5-(2,6-dioxopiperidin-3-yl)-6-methylpyridin-2-yl)ethyl)piperazin-1-yl)phenyl)-1H-pyrazolo[3,4-b]pyridin-3-yl)-2-methylphenyl)ethyl)-1,2,4-oxadiazole-5-carboxamide], the 50% degradation concentration (DC50) was determined as 2.14 nM. The DC50 values of the last two molecules are within 1.5-fold of each other. Next, `Cc1cc(-c2n[nH]c3nc(-c4ccc(N5CCN(CC6CCN(c7ccc(N8CCC(=O)NC8=O)cc7)CC6)CC5)cc4)ccc23)ccc1[C@@H](C)NC(=O)c1noc(C(C)(C)C)n1` [Example 157, (R)-5-(tert-butyl)-N-(1-(4-(6-(4-(4-((1-(4-(2,4-dioxotetrahydropyrimidin-1(2H)-yl)phenyl)piperidin-4-yl)methyl)piperazin-1-yl)phenyl)-1H-pyrazolo[3,4-b]pyridin-3-yl)-2-methylphenyl)ethyl)-1,2,4-oxadiazole-3-carboxamide]: 62.1 nM; `Cc1cc(-c2n[nH]c3ncc(-c4ccc(N5CCN(CCc6ccc(N7CCC(=O)NC7=O)nc6)CC5)cc4)cc23)ccc1[C@@H](C)NC(=O)c1noc(C(C)(C)C)n1` [Example 159, (R)-5-(tert-butyl)-N-(1-(4-(5-(4-(4-(2-(6-(2,4-dioxotetrahydropyrimidin-1(2H)-yl)pyridin-3-yl)ethyl)piperazin-1-yl)phenyl)-1H-pyrazolo[3,4-b]pyridin-3-yl)-2-methylphenyl)ethyl)-1,2,4-oxadiazole-3-carboxamide]: 56.3 nM; `Cc1cc(-c2n[nH]c3ncc(-c4ccc(N5CCN(CC(C)c6ccc(N7CCC(=O)NC7=O)cc6)CC5)cc4)cc23)ccc1[C@@H](C)NC(=O)c1noc(C(C)(C)C)n1` (stereo partly drawn) [Example 160, 5-(tert-butyl)-N-((1R)-1-(4-(5-(4-(4-(2-(4-(2,4-dioxotetrahydropyrimidin-1(2H)-yl)phenyl)propyl)piperazin-1-yl)phenyl)-1H-pyrazolo[3,4-b]pyridin-3-yl)-2-methylphenyl)ethyl)-1,2,4-oxadiazole-3-carboxamide]: 10.6 nM. Consider `Cc1cc(-c2n[nH]c3ncc(-c4ccc(N5CCN(CCc6ccc([C@@H]7CCC(=O)NC7=O)cc6)CC5)cn4)cc23)ccc1[C@@H](C)NC(=O)c1noc(C(C)(C)C)n1` [Example 161, 5-(tert-butyl)-N—((R)-1-(4-(5-(5-(4-(4-((S)-2,6-dioxopiperidin-3-yl)phenethyl)piperazin-1-yl)pyridin-2-yl)-1H-pyrazolo[3,4-b]pyridin-3-yl)-2-methylphenyl)ethyl)-1,2,4-oxadiazole-3-carboxamide], for which half-maximal degradation (DC50) was put at 5.27 nM. Against the preceding molecule, the DC50 is about 2-fold lower. To `Cc1cc(-c2n[nH]c3ncc(-c4ccc(N5CCN(CCc6ccc([C@H]7CCC(=O)NC7=O)cc6)CC5)cn4)cc23)ccc1[C@@H](C)NC(=O)c1noc(C(C)(C)C)n1` [Example 162, 5-(tert-butyl)-N—((R)-1-(4-(5-(5-(4-(4-((R)-2,6-dioxopiperidin-3-yl)phenethyl)piperazin-1-yl)pyridin-2-yl)-1H-pyrazolo[3,4-b]pyridin-3-yl)-2-methylphenyl)ethyl)-1,2,4-oxadiazole-3-carboxamide] belongs 1.01 nM; to `Cc1cc(-c2n[nH]c3ncc(-c4ccc(N5CCN(CCc6ccc(C7CCC(=O)NC7=O)c(C)n6)CC5)cn4)cc23)ccc1[C@@H](C)NC(=O)c1noc(C(C)(C)C)n1` (stereo partly drawn) [Example 163, 5-(tert-butyl)-N-((1R)-1-(4-(5-(5-(4-(2-(5-(2,6-dioxopiperidin-3-yl)-6-methylpyridin-2-yl)ethyl)piperazin-1-yl)pyridin-2-yl)-1H-pyrazolo[3,4-b]pyridin-3-yl)-2-methylphenyl)ethyl)-1,2,4-oxadiazole-3-carboxamide], 2.13 nM; to `Cc1cc(-c2n[nH]c3ncc(-c4ccc(N5CCN(CCn6nc(C)c(N7CCC(=O)NC7=O)c6C)CC5)cc4)cc23)ccc1[C@@H](C)NC(=O)c1noc(C(C)(C)C)n1` [Example 164, (R)-5-(tert-butyl)-N-(1-(4-(5-(4-(4-(2-(4-(2,4-dioxotetrahydropyrimidin-1(2H)-yl)-3,5-dimethyl-1H-pyrazol-1-yl)ethyl)piperazin-1-yl)phenyl)-1H-pyrazolo[3,4-b]pyridin-3-yl)-2-methylphenyl)ethyl)-1,2,4-oxadiazole-3-carboxamide], 2.05 nM. Turning to `Cc1cc(-c2n[nH]c3ncc(-c4ccc(N5CCC(CN6CCN(c7ccc(N8CCC(=O)NC8=O)cn7)CC6)CC5)cc4)cc23)ccc1[C@@H](C)NC(=O)c1noc(C(C)(C)C)n1` [Example 165, (R)-5-(tert-butyl)-N-(1-(4-(5-(4-(4-((4-(5-(2,4-dioxotetrahydropyrimidin-1(2H)-yl)pyridin-2-yl)piperazin-1-yl)methyl)piperidin-1-yl)phenyl)-1H-pyrazolo[3,4-b]pyridin-3-yl)-2-methylphenyl)ethyl)-1,2,4-oxadiazole-3-carboxamide], the DC50 was 2.7 nM. This DC50 and that of the molecule before are within 1.5-fold of each other.

With `Cc1nc(CCN2CCN(c3ccc(-c4cnc5[nH]nc(-c6ccc([C@@H](C)NC(=O)c7noc(C(C)(C)C)n7)c(C)c6F)c5c4)cc3)CC2)ccc1C1CCC(=O)NC1=O` (stereo partly drawn) [Example 166, 5-(tert-butyl)-N-((1R)-1-(4-(5-(4-(4-(2-(5-(2,6-dioxopiperidin-3-yl)-6-methylpyridin-2-yl)ethyl)piperazin-1-yl)phenyl)-1H-pyrazolo[3,4-b]pyridin-3-yl)-3-fluoro-2-methylphenyl)ethyl)-1,2,4-oxadiazole-3-carboxamide], the DC50 was found to be 3.07 nM. `Cc1nc(CCN2CCN(c3ccc(-c4cnc5[nH]nc(-c6ccc([C@@H](C)NC(=O)c7noc(C(C)(C)C)n7)c(CO)c6)c5c4)cc3)CC2)ccc1C1CCC(=O)NC1=O` (stereo partly drawn) [Example 167, 5-(tert-butyl)-N-((1R)-1-(4-(5-(4-(4-(2-(5-(2,6-dioxopiperidin-3-yl)-6-methylpyridin-2-yl)ethyl)piperazin-1-yl)phenyl)-1H-pyrazolo[3,4-b]pyridin-3-yl)-2-(hydroxymethyl)phenyl)ethyl)-1,2,4-oxadiazole-3-carboxamide] returned a DC50 of 4.13 nM. For the molecule `Cc1cc(N2CCC(CCN3CCN(c4ccc(-c5cnc6[nH]nc(-c7ccc([C@@H](C)NC(=O)c8noc(C(C)(C)C)n8)c(C)c7)c6c5)cc4)CC3)CC2)ccc1C1CCC(=O)NC1=O` (stereo partly drawn) [Example 168, 5-(tert-butyl)-N-((1R)-1-(4-(5-(4-(4-(2-(1-(4-(2,6-dioxopiperidin-3-yl)-3-methylphenyl)piperidin-4-yl)ethyl)piperazin-1-yl)phenyl)-1H-pyrazolo[3,4-b]pyridin-3-yl)-2-methylphenyl)ethyl)-1,2,4-oxadiazole-3-carboxamide], it took 15.6 nM to reach half-maximal degradation (DC50). This DC50 lies about 3.8-fold higher than the previous one.

The molecule `COc1cc(N2CCC(CCN3CCN(c4ccc(-c5cnc6[nH]nc(-c7ccc([C@@H](C)NC(=O)c8noc(C(C)(C)C)n8)c(C)c7)c6c5)cc4)CC3)CC2)ccc1C1CCC(=O)NC1=O` (stereo partly drawn) [Example 169, 5-(tert-butyl)-N-((1R)-1-(4-(5-(4-(4-(2-(1-(4-(2,6-dioxopiperidin-3-yl)-3-methoxyphenyl)piperidin-4-yl)ethyl)piperazin-1-yl)phenyl)-1H-pyrazolo[3,4-b]pyridin-3-yl)-2-methylphenyl)ethyl)-1,2,4-oxadiazole-3-carboxamide] showed a DC50 of 15.1 nM. With `Cc1cc(-c2n[nH]c3ncc(-c4ccc(N5CC6CC5CN6CCc5ccc(C6CCC(=O)NC6=O)c(C)n5)cn4)cc23)ccc1[C@@H](C)NC(=O)c1noc(C(C)(C)C)n1` (stereo partly drawn) [Example 170, 5-(tert-butyl)-N-((1R)-1-(4-(5-(5-(5-(2-(5-(2,6-dioxopiperidin-3-yl)-6-methylpyridin-2-yl)ethyl)-2,5-diazabicyclo[2.2.1]heptan-2-yl)pyridin-2-yl)-1H-pyrazolo[3,4-b]pyridin-3-yl)-2-methylphenyl)ethyl)-1,2,4-oxadiazole-3-carboxamide], the DC50 is 4.77 nM. As for `COc1cc(N2CCC(=O)NC2=O)ccc1N1CCC(CN2CCN(c3ccc(-c4cnc5[nH]nc(-c6ccc([C@@H](C)NC(=O)c7noc(C(C)(C)C)n7)c(C)c6)c5c4)cc3)CC2)CC1` [Example 171, (R)-5-(tert-butyl)-N-(1-(4-(5-(4-(4-((1-(4-(2,4-dioxotetrahydropyrimidin-1(2H)-yl)-2-methoxyphenyl)piperidin-4-yl)methyl)piperazin-1-yl)phenyl)-1H-pyrazolo[3,4-b]pyridin-3-yl)-2-methylphenyl)ethyl)-1,2,4-oxadiazole-3-carboxamide], it took 3.52 nM to reach half-maximal degradation (DC50). `Cc1cc(-c2n[nH]c3ncc(-c4ccc(N5CCN(CC6CCN(c7ccc(N8CCC(=O)NC8=O)c(C)c7)CC6)CC5)cc4)cc23)ccc1[C@@H](C)NC(=O)c1cc(C(C)(C)C)on1` [Example 172, (R)-5-(tert-butyl)-N-(1-(4-(5-(4-(4-((1-(4-(2,4-dioxotetrahydropyrimidin-1(2H)-yl)-3-methylphenyl)piperidin-4-yl)methyl)piperazin-1-yl)phenyl)-1H-pyrazolo[3,4-b]pyridin-3-yl)-2-methylphenyl)ethyl)isoxazole-3-carboxamide]: the DC50 is 20.8 nM. With `Cc1cc(CCN2CC3CC2CN3c2ccc(-c3cnc4[nH]nc(-c5ccc([C@@H](C)NC(=O)c6noc(C(C)(C)C)n6)c(C)c5)c4c3)nc2)ncc1C1CCC(=O)NC1=O` (stereo partly drawn) [Example 173, 5-(tert-butyl)-N-((1R)-1-(4-(5-(5-(5-(2-(5-(2,6-dioxopiperidin-3-yl)-4-methylpyridin-2-yl)ethyl)-2,5-diazabicyclo[2.2.1]heptan-2-yl)pyridin-2-yl)-1H-pyrazolo[3,4-b]pyridin-3-yl)-2-methylphenyl)ethyl)-1,2,4-oxadiazole-3-carboxamide], the DC50 is greater than 2000 nM.
